Earlier results on 8 molecules are cited in patent US8734826B2 (priority 2005, dated 2014).

Where two headings read alike, the source gives them in different places.

For one data set, the system named is anal sphincter. Conditions: in vivo.
The next data set has as its system anal fissure. Conditions: in vivo.
For data set [1], the system named is internal anal sphincter smooth muscle.
The conditions of data set [2]: in vivo.
Data set [3] concerns pre-synaptic cholinergic nerve terminals. As to conditions: in vivo.

On to `N=C(N)NCCC[C@H](N)C(=O)O` [L-arginine], for which the resting anal pressure result in the data set on anal sphincter is “causes a reduction in resting anal pressure”.
In the case of `CC(C[N+](C)(C)C)OC(N)=O` (centres unmarked) [bethanecol], the resting anal pressure entry in the data set on anal sphincter is reported as “reducing resting anal pressure”. The “healing of anal fissures” value in the data set on anal fissure was “increased healing of anal fissures”.
Regarding `COc1ccc([C@@H]2Sc3ccccc3N(CCN(C)C)C(=O)[C@@H]2OC(C)=O)cc1` [diltiazem], the resting anal pressure entry in the data set with anal sphincter is listed as “reduce resting anal pressure”; in the data set on anal sphincter (po) it was “caused a reduction in resting anal pressure”. In addition, the fissure healing entry with anal fissure is “results in fissure healing”.
`O=C(NC1CCN(CCc2c[nH]c3ccccc23)CC1)c1ccccc1` [indoramin]: in the data set with anal sphincter (po), the resting anal pressure result is “reduce resting anal pressure”.
For the molecule `O=[N+]([O-])O[C@H]1CO[C@H]2[C@@H]1OC[C@H]2O[N+](=O)[O-]` [isorbide dinitrate], the “relaxation of internal anal sphincter smooth muscle” value in data set [1] is “cause a relaxation of internal anal sphincter smooth muscle”. Further, in the data set with anal fissure, the “pain reduction and fissure healing” value was “pain reduction and increased fissure healing”.
Consider `O=[N+]([O-])OCC(CO[N+](=O)[O-])O[N+](=O)[O-]` [nitroglycerin], for which the “relaxation of internal anal sphincter smooth muscle” value in data set [1] is listed as “cause a relaxation of internal anal sphincter smooth muscle”. Also, the “pain reduction and fissure healing” value in the data set on anal fissure is “pain reduction and increased fissure healing”.
Take `CC(C)(C)NCC(O)c1ccc(O)c(CO)c1` (centres unmarked) [salbutamol]: in the data set with anal sphincter, the resting anal pressure result is “reduce resting anal pressure”.
Turning to Botulinum toxin, the voluntary squeeze pressure entry in the data set with anal sphincter is “reduction in voluntary squeeze pressure”. In the data set on anal fissure, the fissure healing result is recorded as “healing of the fissure”; the “pain and fissure healing” value was “reduced pain and promoted fissure healing”. Further, the peri-anal thrombosis entry in data set [2] is given as “peri-anal thrombosis has been reported in some patients”. Moreover, the “duration of clinical weakening of the muscle” value in data set [3] is listed as 3 to 4 months.
